How the values were obtained:
Assay type in all cases: physicochemical
[1] = UV assay of actives; conditions: UV absorbance at λmax, sample vs standard; ODF samples Examples 3-5
Protocol: A stock solution of 1000 μg/ml of alpha lipoic acid were prepared in methanol and measured absorbance at 322 nm.
Standard β-carotene for identification was prepared in DCM to obtain 1000 μg/mL and measured absorbance at 461 nm.
2 ml of the standard and sample solution of folic acid was taken in marked test tubes. In each test tube, 2 ml of 0.02% potassium permanganate solution, 2 ml 2% […] solution, 2 ml 4 M hydrochloric acid solution, 1 ml 5% ammonium sulphamate solution and 1 ml dye solution (0.1% N, N diethyl aniline dye solution in iso propyl alcohol) added and mixed well, then kept for 15 minute at room temperature. It was absorbance recorded at 535 nm against blank.
2 ml of the standard and sample solution of Vitamin B6 was taken in marked test tubes. In each test tube, 1 ml of ammonium buffer (in water), 1 ml of 20% sodium acetate (in water), 1 ml of 5% boric acid (in water) and 1 ml dye (2,6-di-chloroquinine chorimide) solution added and mixed well. It was absorbance recorded at 650 nm against blank.
The assay were prepared of standard and sample solutions of four actives, that is, lipoic acid, β-carotene, folic acid and Vitamin B6 respectively.

[2] = Gas chromatography assay of actives in mouth freshener film; conditions: for Assay result (%): GC result relative to formula content, mouth freshener film; for GC Result (%): content in mouth freshener film
Description: Gas Chromatography is quantitative study use to determine assay of actives. GC was done by Bangalore Testing Laboratories Pvt. Ltd., Bangalore (FIG. 8). The GC is used to observe whether the active is intact in the film without its decomposition. Table 15 illustrated all the characteristic peaks of the actives (menthol, thymol, methyl salicylate, eucalyptol) used in the composition.

[3] = Thermogravimetric analysis (TGA); conditions: 30-360° C. at 20° C./min
Protocol: Thermogravimetric analysis (TGA) studies (Perkin Elmer Pyris 1, Shelton, Conn., USA) were performed to estimate the thermal stability of the actives and excipients during HME processing. Data were analyzed using Pyris software. The API excipients were heated from 30-360° C. at 20° C./min.

[4] = Raman spectroscopy for stability of active after HME; conditions: ODF containing Vitamin B12 (Example 6), Raman spectra
Protocol: Raman spectroscopy is a spectroscopic technique commonly used in chemistry to provide a structural fingerprint by which molecules can be identified. It can identify a particular molecule/API based on the Raman shift. The formulated ODFs were analyzed using Raman spectra for identification of stability of active in the delivery system after processing using HME. The Raman spectra was recorded with a LabRam HR800 (Horiba Jovan Yvon, UK) equipped with a 534-nm Ar—Ne laser. The laser excitation was focused using a 50 objective (Olympus Corporation, Japan) and the scattered light was totally transmitted through the notch filter towards the confocal hole and entrance slit of the spectrograph. The stokes-shifted Raman scatter was dispersed using a […] grating onto a peltier-cooled changed-coupled device (CCD, Andor Technology PLC) to capture a spectrum. Each sample had their spectra measured using […] excitation (at 534 nm) of 250 mW and continuous readout of Raman shift spectrum from 0 to 3500 cm^−1. Spectra were acquired using a 50× objective and a […] confocal hole. A 600 lines/mm rotatable diffraction grating along a path length of 800 mm was used to simultaneously scan a range of frequencies. Raman spectra were collected using a Synapse CCD detector (1024 pixels).

[5] = In-vitro disintegration time during formulation development (saliva stimulant and flavour optimisation)
Description: The purpose of using saliva stimulating agents is to increase the rate of production of saliva that would aid in the faster disintegration of the rapid dissolving strip formulations.
The concentration of menthol, eucalyptol and sucralose was optimized according to the mouth feel, freshening effect and the formulation was checked for its effect on disintegration time (Table 5).

| Compound | Assay of actives Result (%) [1] [%] | Assay result (%) [2] [%] | GC Result (%) [2] | further results |
| --- | --- | --- | --- | --- |
| Vit B6 | 99.3 | – | – | – |
| Cc1ccc(C(C)C)c(O)c1 [Thymol] | – | 104.3 | 0.097% | – |
| OC[C@H]1O[C@H](O[C@]2(CCl)O[C@H](CCl)[C@@H](O)[C@@H]2O)[C@H](O)[C@@H](O)[C@H]1Cl [Sucralose] | – | – | – | loss of weight [3]: < 7% |
| COC(=O)c1ccccc1O [Methyl Salicylate] | – | 92.8 | 0.052% | – |
| Vitamin B12 | – | – | – | stability of active after twin-screw HME processing [4]: does not degrade |
| O=C(O)CCCCC1CCSS1 (centres unmarked) [Lipoic acid] | 100.5 | – | – | – |
| CC1CCC(C(C)C)C(O)C1 (centres unmarked) [Menthol] | – | 92.1 | 0.035% | – |
| O=C(O)CC(O)(CC(=O)O)C(=O)O [Citric acid] | – | – | – | Disintegration time ([5]; saliva stimulating agent at 1 % composition): 14 s; Disintegration time ([5]; saliva stimulating agent at 5 % composition): Less than 10 seconds; Disintegration time ([5]; saliva stimulating agent at 10 % composition): Less than 10 seconds |
| CC12CCC(CC1)C(C)(C)O2 [Eucalyptol] | – | 96.6 | 0.023(cineole % | – |
| Nc1nc2ncc(CNc3ccc(C(=O)N[C@@H](CCC(=O)O)C(=O)O)cc3)nc2c(=O)[nH]1 [Folic acid] | 99.1 | – | – | – |
| CC1=C(/C=C/C(C)=C/C=C/C(C)=C/C=C/C=C(C)/C=C/C=C(C)/C=C/C2=C(C)CCCC2(C)C)C(C)(C)CCC1 [B carotene] | 98.28 | – | – | – |

— patent US20190336453A1, “ORAL DISPERSIBLE FILM COMPOSITION” (BonAyu Lifesciences Private Limited, priority 2017, published 2019)
